# Laboratory results taken from patent publication US20130011384A1, “Use of a Material, Produced from Fungal Fermentation, as a Food Supplement” (priority 2010, published 2013).
# Tested on: methanogenic archaea
# Assay: In vitro sequential batch fermentation of sheep ruminal fluid with alfalfa hay (Example 2)
# Type: cell-based
# Settings: for Acetate / Butyrate / Gas / Methane / Propionate / Total VFA: 48 hrs at 39° C., 100 μl/tube, monacolin K 20 μg/ml final
# Excerpt: The effect of a rice extract fermented by a selected strain of Monascus sp., prepared in accordance with Example 1, on ruminal fermentation, specifically on methane production, was studied in vitro by using a sequential batch fermentation system.
# Three sheep equipped with rumen cannulae, receiving hay-based feed twice a day, were used as ruminal content donors. The ruminal contents of the three animals were sampled in the morning before feeding, filtered through a cloth with a mesh size of 400 μm in diameter in order to obtain the liquid phase, and mixed in equal quantities. To seventy-five milliliters of this mixed ruminal fluid was added 300 ml of anaerobic buffer solution (Weller & Pilgrim, Br. J. Nutr. 32:341-51. 1974). An aliquot fraction (5 ml) of this ruminal fluid/buffer solution was then transferred into Hungate tubes in a CO2 atmosphere containing 100±2 mg of alfalfa hay. To each tube was added, respectively: (i) 100 μl of the Monascus extract, or (ii) pure monacolin K, (iii) a 25% (v/v) ethanol solution, or (iv) water (see Table 1 below). The tubes were incubated at 39° C. for 48 hrs. Each treatment was performed three times.
# After 48 hrs. of incubation, 2 ml of each of the triplicates of each treatment were mixed, and 1.5 ml of this mixture was used to inoculate 3 new Hungate tubes containing 3.5 ml of buffer and 100 mg of alfalfa hay.
# Next, 100 μl of the various treatments was added to the tubes (Cf. Table 1 above), and the tubes were again incubated at 39° C. while stirring for an additional 48 hrs. This procedure was repeated a second time.
# At the end of each 48-hr. period, gas production and concentrations of methane and of volatile fatty acids resulting from fermentation were measured.
smiles,measurement,setting,value
"CC[C@H](C)C(=O)O[C@H]1C[C@@H](C)C=C2C=C[C@H](C)[C@H](CC[C@@H]3C[C@@H](O)CC(=O)O3)[C@H]21 [Monacolin K, monacolin K]",Acetate,1st Transfer,69.6 ± 1.5 mmol/L
same,Butyrate,1st Transfer,6.1 ± 0.1 mmol/L
same,Gas,1st Transfer,21.9 ± 0.3 mL
same,Methane,1st Transfer,162.5 ± 22.9 µmol
same,Propionate,1st Transfer,16.7 ± 0.4 mmol/L
same,Total VFA,1st Transfer,96.3 ± 2.1
same,Acetate,2nd Transfer,49.1 ± 3.8 mmol/L
same,Butyrate,2nd Transfer,5.9 ± 0.7 mmol/L
same,Gas,2nd Transfer,17.8 ± 0.5 mL
same,Methane,2nd Transfer,16.2 ± 17.0 µmol
same,Propionate,2nd Transfer,19.7 ± 2.8 mmol/L
same,Total VFA,2nd Transfer,76.5 ± 7.4
same,Acetate,3rd Transfer,57.3 ± 6.9 mmol/L
same,Butyrate,3rd Transfer,6.6 ± 1.0 mmol/L
same,Gas,3rd Transfer,19.2 ± 0.4 mL
same,Methane,3rd Transfer,59.1 ± 9.4 µmol
same,Propionate,3rd Transfer,28.5 ± 3.5 mmol/L
same,Total VFA,3rd Transfer,95.1 ± 11.5
same,methane-production-reducing effect,"in vitro, under the same conditions as the Monascus fermentation product",no methane-production-reducing effect
